In patent US10000771B2, “Nuclear targeting sequences” (Yeda Research and Development Co. Ltd., priority 2007, dated 2018):
Ends that are not written are not given here. 2GFP = dimer of GFP proteins

Legend:
Type in all cases: cell-based
[1] = system: COS7 cells; assay: Subcellular fractionation of GFP-ERK2 constructs; details: 48 hr after transfection, serum-starved
Description: FIG. 6 is an autoradiograph illustrating the subcellular fractionation of WT-GFP-ERK2 (WT), APA-GFP-ERK2 (APA), or EPE-GFP-ERK2 (EPE). COS7 cells were grown in 10 cm plates and transfected with the above ERK2 constructs. Twenty-four hr after transfection the cells were serum-starved for 16 hr and subjected to cellular fractionation as described under materials and Methods. Western blot analysis of aliquots of the fractions were stained with anti GFP Ab to detect the ERK2 and its mutant, and with anti tubulin and anti c-Jun Abs as markers for the cytoplasmic and nuclear fractions respectively.
Cellular Fractionation: Transfected COS7 cells were starved (0.1% FBS) for 16 h, after which they were washed with ice-cold PBS, suspended in ice-cold buffer H, and centrifuged (12,000×g, 5 min). Then, the nuclear and cytosolic fractions were isolated as described [H. Rubinfeld, T. Hanoch, R. Seger, J. Biol. Chem. 274, 30349 (1999)]. Briefly, the pellets were suspended in 0.1% NP-40 followed by centrifugation (12,000×g, 5 min). The supernatant, containing the cytosolic fraction, was boiled in sample buffer. The pellet was suspended in extraction buffer (420 mM Nacl, 50 mM β-glycerophosphate, 0.5 mM Na3VO4, 1.5 mM MgCl2, 0.2 mM EDTA, 1 mM DTT, 25% glycerol), incubate on ice for 10 min, sonicated (50 W, 2×7 sec), and centrifuged (12,000×g, 5 min). […]

[2] = system: CHO cells; assay: Fluorescence microscopy of ERK2 constructs (subcellular localization)
Description: FIGS. 1A-1R are photomicrographs illustrating the role of SPS in the non-regulated accumulation of ERK2 in the nucleus. CHO (FIGS. 1A-F and 1M-R) or COS7 cells (FIGS. 1G-L) were grown on cover slips and transfected with WT-ERK2, or the mutants 244-6A and Δ244-6. Twenty-four hr following transfection, the cells were serum-starved (16 hr), fixed, stained with DAPI and visualized using a fluorescent microscope.
FIGS. 2A-2X are photomicrographs illustrating the role of SPS in the stimulated nuclear translocation of ERK2. CHO cells were grown on cover slips and co-transfected with HA-MEK1 together with either WT-ERK2, 244-6A, or Δ244-6. Twenty-four hr after transfection, the cells were serum starved for 16 hours, treated with TPA (250 nM, 15 min), except in WT-10 where the cells were treated with 10 nM TPA for 15 min. After treatments the cells were fixed and stained with either anti-HA Ab or DAPI.
FIGS. 5A-5F are photomicrographs illustrating that mutating the Ser residues in the SPS to Glu induces the nuclear accumulation of ERK2. CHO cells were grown on cover slips and transfected with WT-GFP-ERK2 (WT), APA-GFP-ERK2 (APA), or EPE-GFP-ERK2 (EPE). […]
Immunofluorescence Microscopy. […] Slides were visualized using a fluorescence microscope (Nikon, Japan) at 400× magnifications. […]

[3] = system: TEY motif of ERK2; assay: TEY phosphorylation by Western blot with anti pTEY-ERK; details: COS7 cells, following EGF stimulation
Description: FIG. […] ERK2 phosphorylation was detected by Western blot analysis using anti-phosphoTEY-ERK (αpTEY), and anti ERK Abs (αgERK).
Western Blotting: Cell extract was collected as described above, and aliquots from each sample (20 μg) were separated by 10% SDS-PAGE followed by Western blotting with the appropriate antibodies. The blots were developed with alkaline phosphatase or horseradish peroxidase-conjugated anti-mouse’, anti-rabbit and anti-goat Fab Abs.

[4] = system: COS7 cells; assay: Subcellular fractionation of 2GFP chimeras
Description: FIG. 9A is an autoradiograph illustrating the subcellular fractionation of transfected SPS, APA, and EPE peptides fused to a 2GFP in COS7 cells. Western blot analysis of aliquots of the fractions were stained with anti GFP Ab to detect the different chimaras, and with anti tubulin and anti c-Jun Abs as markers for the cytoplasmic and nuclear fractions respectively.
Cellular Fractionation: Transfected COS7 cells were starved (0.1% FBS) for 16 h, after which they were washed with ice-cold PBS, suspended in ice-cold buffer H, and centrifuged (12,000×g, 5 min). Then, the nuclear and cytosolic fractions were isolated as described [H. Rubinfeld, T. Hanoch, R. Seger, J. Biol. Chem. 274, 30349 (1999)]. Briefly, the pellets were suspended in 0.1% NP-40 followed by centrifugation (12,000×g, 5 min). The supernatant, containing the cytosolic fraction, was boiled in sample buffer. The pellet was suspended in extraction buffer (420 mM Nacl, 50 mM β-glycerophosphate, 0.5 mM Na3VO4, 1.5 mM MgCl2, 0.2 mM EDTA, 1 mM DTT, 25% glycerol), incubate on ice for 10 min, sonicated (50 W, 2×7 sec), and centrifuged (12,000×g, 5 min). The supernatant, containing the nuclear fraction, was subjected to Western blot.

[5] = system: CHO cells; assay: Fluorescence microscopy of 2GFP chimeras (subcellular localization); details: 24 hr post transfection, serum-starved
Description: FIGS. 8A-8H are photomicrographs illustrating that SPS, APA, and EPE peptides fused to a 2GFP chimera modify its subcellular localization. CHO cells were grown on cover slips and transfected with 19 amino acid from the kinase insert domain of ERK2 including the SPS region (GFP-SPS) fused to a 2GFP chimera and with the same chimeras with substitution of the Ser to Ala (GFP-APA) or substitution to Glu (GFP-EPE). Twenty-four hr later, the cells were serum-starved for 16 hr, fixed, stained with DAPI and visualized by a fluorescence microscope.
Immunofluorescence Microscopy. Cells were fixed (30 min in 3% paraformaldehyde in PBS or 10 min with ice-cold methanol), followed by 5-min permeabilization with 0.2% Triton X-100 in PBS (23° C.). The fixed cells were sequentially incubated with the appropriate Abs (45 min) followed by rhodamine-conjugated secondary Abs (45 min) and DAPI. Slides were visualized using a fluorescence microscope (Nikon, Japan) at 400× magnifications.
To validate the general importance of the SPS domain, a 19 amino acid sequence surroundings the SPS or the APA and EPE mutants was fused to a dimer of GFP proteins (2GFP). Cellular distribution of the chimeras was detected in CHO cells 24 hr post transfection of the GFP constructs.

Substance	localized in the nucleus [1]	localization upon TPA stimulation ([2]; CHO cells cotransfected with MEK1, TPA 250 nM)	localization at equivalent TEY phosphorylation levels ([2]; CHO cells cotransfected with MEK1, TPA 10 nM for WT-ERK2 and 250 nM for the mutants)	time of peak TEY phosphorylation [3] [min]	localized in the nucleus [4] [%]	cellular distribution [5]
WT-ERK2: wild-type ERK2 fused to GFP, prepared in pEGFP C1 [reference compound]	about 75%	translocated into the nucleus upon TPA stimulation	localized to the nucleus	5	–	–
2GFP-SPS: 2GFP with the 19 amino acid stretch containing the SPS of ERK2 (SEQ ID NO: 6) fused to its C terminus (2GFP-LDQLNHILGILGSPSQEDL)	–	–	–	–	15	localized throughout the cell
